From patent US20240344241A1, “PROTEINACEOUS MOLECULES AND USES THEREFOR” (THE UNIVERSITY OF QUEENSLAND, priority 2021, published 2024)
Bridge positions count the residues as written; N and C are the ends. Peptide text beside a SMILES is read from it.

What was measured:
[1] = molecular target: T1, Human β-FXIIa (Homo sapiens, UniProt P00748); assay: FXIIa competitive inhibition assay, fluorescent substrate Boc-QGR-MCA; format: biochemical
T1 construct: Human β-FXIIa was obtained from Molecular Innovations, together with human FXa, human FXIa, human α-thrombin, and human plasma kallikrein; purchased Molecular Innovations; host or cells: purified from human plasma
From the text: Cyclic [I7F]MCoFx1 (also referred to as cyclic MCoFx6) was synthesized using solid phase peptide synthesis ([[…]] [SEQ ID NO: 97]). For this inhibitor, Tyr33 was mutated back to serine as per the original mRNA display screen (FIG. 1). Cyclic MCoFx6 was screened using a competitive inhibition assay, with the substrate being changed from a colorimetric substrate (Ac-QRFR-pNA in the data of Tables 7 and 10) to a fluorescent substrate (Boc-QGR-MCA) to allow the assay to be run with a lower concentration of enzyme. The assay was performed as described for Examples 2 and 3, except that the FXIIa concentration was 0.5 nM and the substrate concentration was 50 μM (KM=187 μM).
The new variants were screened using competitive inhibition assays, with the substrate being changed from a colorimetric substrate (Ac-QRFR-pNA in the data of Tables 7 and 10) to a fluorescent substrate (Boc-QGR-MCA) to allow the assay to be run with a lower concentration of enzyme. Assays were performed as described for Examples 2 and 3, except that the FXIIa concentration was 0.5 nM and the substrate concentration was 50 μM (KM=187 μM). […] The effect of amino acid substitutions within loop 2 (Arg12, Arg13), loop 5 (Ala25, Arg27) or loop 6 (Asp34) on the activity of cyclic MCoFx7 against FXIIa was determined (refer to Table 14). […] Additionally, mutating Arg to Glu (reversing the side chain charge) only led to two-fold weaker activity. The adjacent residue Arg13 could also be mutated to Lys with no change in activity. Within loop 5, mutating Ala25 to Lys produced a slight gain in activity, whereas the Ala to Pro mutation led to a slight decrease in activity. Both mutations at Arg27 led to losses in activity in the order of two-fold (His) or 3.2-fold (Gly).
(§1) The activity of acyclic and cyclic MCoFx1-5 and analogues thereof was assessed in competitive inhibition assays, as previously described in Swedberg et al. (2016) J Med Chem, 59: 7287-7292. Human β-FXIIa was obtained from Molecular Innovations, together with human FXa, human FXIa, human α-thrombin, and human plasma kallikrein. Human cationic trypsin and human plasmin were obtained from Sigma-Aldrich, and recombinant human matriptase was sourced from R&D Systems. Recombinant human urokinase (uPA) and recombinant human tissue plasminogen activator (tPA) were expressed in Expi293 cells, as previously described in Li et al. (2019) Chembiochem, 20: 46-50. FXIIa inhibition assays were performed in clear, low-binding 96-well plates using 250 μL (final volume) of assay buffer (0.1 M Tris-HCl pH 8.0, 0.1 M NaCl, 10 mM CaCl2 and 0.005% Triton X-100). Inhibitors were serially diluted and incubated with 10 nM FXIIa at room temperature to reach equilibrium. After adding 100 μM Ac-QRFR-pNA substrate (KM=162 μM), enzymatic activity was measured by monitoring release of the pNA moiety using a TECAN infinite M1000 Pro plate reader (A=405 nm, reading interval, 10 s; assay time course, 7 min). Assays were conducted in three times in duplicate. Substrate kinetic constants (Michaelis-Menten) and inhibition constants (Morrison K) were determined by non-linear regression using Prism 7 (GraphPad). Selectivity assays with off-target proteases were performed in a similar way, except that different concentrations of enzyme and substrate were used, as indicated in Table 16. For assays using a fluorescent substrate (peptide-4-methylcoumaryl-7-amide, MCA), black low-binding 96-well plates were used and activity was measured using a TECAN infinite M1000 pro plate reader (λex 360 nm, λem 460 nm, reading interval, 30 s; assay time course, 5-30 min).

[2] = molecular target: T2, biotinylated human β-FXIIa (Homo sapiens, UniProt P00748); assay: Surface plasmon resonance binding to FXIIa
T2 construct: purchased Molecular Innovations
Experimental: Binding kinetics of each peptide towards biotinylated human β-FXIIa (Molecular Innovations) and non-labelled zymogen FXII (Haematologic Technologies) were determined using a Biacore T200 machine (Cytiva). For β-FXIIa binding measurements, the running buffer was HBS-EP+(10 mM HEPES, 150 mM NaCl, 3 mM EDTA and 0.05% (v/v) surfactant P20, pH 7.4). Biotinylated β-FXIIa was immobilized on a Sensor Chip CAP (Cytiva) using Biotin CAPture Reagent (Cytiva). A series of concentrations of each peptide were injected as analyte and the binding kinetics were modelled using a 1:1 binding model. Regeneration of sensor surface was performed after each measurement cycle. For FXII binding measurements, the running buffer was PBST (137 mM NaCl, 2.7 mM KCl, 10 mM Na2HPO4, 1.8 mM KH2PO4, 0.05% Tween-20). Non-labelled FXII was immobilized on a Sensor Chip CM5 (Cytiva) using Amine Coupling Kit (Cytiva), achieving a final immobilization level of 2500 RU. Each peptide was flowed through immobilized FXII at 5 μM for 60 s and allowed dissociation for 150 s.

[3] = molecular target: T3, bovine trypsin (Bos taurus, UniProt P00760); assay: Surface plasmon resonance binding to trypsin
T3 sequence (P00760 24-246): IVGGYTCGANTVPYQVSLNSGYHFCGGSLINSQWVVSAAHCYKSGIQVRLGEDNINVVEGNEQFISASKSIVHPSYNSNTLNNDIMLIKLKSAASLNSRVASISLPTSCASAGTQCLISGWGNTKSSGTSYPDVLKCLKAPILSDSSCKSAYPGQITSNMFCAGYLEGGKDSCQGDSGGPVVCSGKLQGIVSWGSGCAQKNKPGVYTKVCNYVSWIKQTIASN

[4] = molecular target: T1, Human β-FXIIa; assay: FXIIa competitive inhibition assay, colorimetric substrate Ac-QRFR-pNA; format: biochemical
Experimental: as §1

T1 sequence (P00748 373-615 limits assumed, other chains not shown): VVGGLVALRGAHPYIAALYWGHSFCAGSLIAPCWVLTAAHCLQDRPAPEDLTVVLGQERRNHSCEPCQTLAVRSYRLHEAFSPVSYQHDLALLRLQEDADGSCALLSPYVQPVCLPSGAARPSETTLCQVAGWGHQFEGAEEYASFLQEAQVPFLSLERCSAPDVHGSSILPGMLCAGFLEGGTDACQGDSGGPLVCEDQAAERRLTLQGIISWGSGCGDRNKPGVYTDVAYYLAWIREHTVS
T2 sequence (P00748 373-615 limits assumed, other chains not shown): as above

Structure (SMILES)	Ki [1] [nM]	other results
CC[C@H](C)[C@@H]1NC(=O)CNC(=O)CNC(=O)[C@H](CC(=O)O)NC(=O)[C@H](CO)NC(=O)CNC(=O)[C@H](CO)NC(=O)CNC(=O)[C@@H]2CSSC[C@@H]3NC(=O)[C@H](CC(=O)O)NC(=O)[C@H](CO)NC(=O)[C@H](CC(=O)O)NC(=O)[C@H](CCCNC(=N)N)NC(=O)[C@H]([C@@H](C)O)NC(=O)[C@@H]4CSSC[C@H](NC(=O)[C@H]([C@@H](C)CC)NC(=O)[C@H](CSSC[C@H](NC1=O)C(=O)N1CCC[C@H]1C(=O)N[C@@H](CCCNC(=N)N)C(=O)N[C@@H]([C@@H](C)CC)C(=O)NCC(=O)N[C@@H](CCCNC(=N)N)C(=O)N[C@@H](CC(C)C)C(=O)N4)NC(=O)[C@H](C)NC(=O)CNC(=O)[C@@H]1CCCN1C3=O)C(=O)N[C@@H](CCCNC(=N)N)C(=O)N[C@@H](C)C(=O)N[C@@H]([C@@H](C)O)C(=O)N[C@@H](CCCNC(=N)N)C(=O)N[C@@H](Cc1ccccc1)C(=O)N2 [Cyclic [R12T]MCoFx7] (cyclo(ACICRATRFCGSGSDGGICPRIGRLCTRDSDCPG); disulfide 2-19, 4-26, 10-32)	0.065 ± 0.005	
CC[C@H](C)[C@@H]1NC(=O)CNC(=O)CNC(=O)[C@H](CC(=O)O)NC(=O)[C@H](CO)NC(=O)CNC(=O)[C@H](CO)NC(=O)CNC(=O)[C@@H]2CSSC[C@@H]3NC(=O)[C@H](CC(=O)O)NC(=O)[C@H](CO)NC(=O)[C@H](CC(=O)O)NC(=O)[C@H](CCCNC(=N)N)NC(=O)[C@H](C(C)C)NC(=O)[C@@H]4CSSC[C@H](NC(=O)[C@H]([C@@H](C)CC)NC(=O)[C@H](CSSC[C@H](NC1=O)C(=O)N1CCC[C@H]1C(=O)N[C@@H](CCCNC(=N)N)C(=O)N[C@@H]([C@@H](C)CC)C(=O)NCC(=O)N[C@@H](CCCNC(=N)N)C(=O)N[C@@H](CC(C)C)C(=O)N4)NC(=O)[C@H](C)NC(=O)CNC(=O)[C@@H]1CCCN1C3=O)C(=O)N[C@@H](CCCNC(=N)N)C(=O)N[C@@H](C)C(=O)N[C@@H]([C@@H](C)O)C(=O)N[C@@H](CCCNC(=N)N)C(=O)N[C@@H](Cc1ccccc1)C(=O)N2 [Cyclic [R12V]MCoFx7] (cyclo(ACICRATRFCGSGSDGGICPRIGRLCVRDSDCPG); disulfide 2-19, 4-26, 10-32)	0.069 ± 0.005	
CC[C@H](C)[C@@H]1NC(=O)CNC(=O)CNC(=O)[C@H](CC(=O)O)NC(=O)[C@H](CO)NC(=O)CNC(=O)[C@H](CO)NC(=O)CNC(=O)[C@@H]2CSSC[C@@H]3NC(=O)[C@H](CC(=O)O)NC(=O)[C@H](CO)NC(=O)[C@H](CC(=O)O)NC(=O)[C@H](CCCCN)NC(=O)[C@H](CCCNC(=N)N)NC(=O)[C@@H]4CSSC[C@H](NC(=O)[C@H]([C@@H](C)CC)NC(=O)[C@H](CSSC[C@H](NC1=O)C(=O)N1CCC[C@H]1C(=O)N[C@@H](CCCNC(=N)N)C(=O)N[C@@H]([C@@H](C)CC)C(=O)NCC(=O)N[C@@H](CCCNC(=N)N)C(=O)N[C@@H](CC(C)C)C(=O)N4)NC(=O)[C@H](C)NC(=O)CNC(=O)[C@@H]1CCCN1C3=O)C(=O)N[C@@H](CCCNC(=N)N)C(=O)N[C@@H](C)C(=O)N[C@@H]([C@@H](C)O)C(=O)N[C@@H](CCCNC(=N)N)C(=O)N[C@@H](Cc1ccccc1)C(=O)N2 [Cyclic [R13K]MCoFx7] (cyclo(ACICRATRFCGSGSDGGICPRIGRLCRKDSDCPG); disulfide 2-19, 4-26, 10-32)	0.068 ± 0.003	
CC[C@H](C)[C@@H]1NC(=O)CNC(=O)CNC(=O)[C@H](CC(=O)O)NC(=O)[C@H](CO)NC(=O)CNC(=O)[C@H](CO)NC(=O)CNC(=O)[C@@H]2CSSC[C@@H]3NC(=O)[C@H](CC(=O)O)NC(=O)[C@H](CO)NC(=O)[C@H](CC(=O)O)NC(=O)[C@H](CCCNC(=N)N)NC(=O)[C@H](CCCNC(=N)N)NC(=O)[C@@H]4CSSC[C@H](NC(=O)[C@H]([C@@H](C)CC)NC(=O)[C@H](CSSC[C@H](NC1=O)C(=O)N1CCC[C@H]1C(=O)N[C@@H](CCCNC(=N)N)C(=O)N[C@@H]([C@@H](C)CC)C(=O)NCC(=O)N[C@@H](CCCNC(=N)N)C(=O)N[C@@H](CC(C)C)C(=O)N4)NC(=O)[C@H](C)NC(=O)CNC(=O)[C@@H]1CCCN1C3=O)C(=O)N[C@@H](CCCNC(=N)N)C(=O)N[C@@H](C)C(=O)N[C@@H]([C@@H](C)O)C(=O)NCC(=O)N[C@@H](Cc1ccccc1)C(=O)N2 [Cyclic [R27G]MCoFx7] (cyclo(ACICRATGFCGSGSDGGICPRIGRLCRRDSDCPG); disulfide 2-19, 4-26, 10-32)	0.21 ± 0.008	
CC[C@H](C)[C@@H]1NC(=O)CNC(=O)CNC(=O)[C@H](CC(=O)O)NC(=O)[C@H](CO)NC(=O)CNC(=O)[C@H](CO)NC(=O)CNC(=O)[C@@H]2CSSC[C@@H]3NC(=O)[C@H](CC(=O)O)NC(=O)[C@H](CO)NC(=O)[C@H](CC(=O)O)NC(=O)[C@H](CCCNC(=N)N)NC(=O)[C@H](CCCNC(=N)N)NC(=O)[C@@H]4CSSC[C@H](NC(=O)[C@H]([C@@H](C)CC)NC(=O)[C@H](CSSC[C@H](NC1=O)C(=O)N1CCC[C@H]1C(=O)N[C@@H](CCCNC(=N)N)C(=O)N[C@@H]([C@@H](C)CC)C(=O)NCC(=O)N[C@@H](CCCNC(=N)N)C(=O)N[C@@H](CC(C)C)C(=O)N4)NC(=O)[C@H](C)NC(=O)CNC(=O)[C@@H]1CCCN1C3=O)C(=O)N[C@@H](CCCNC(=N)N)C(=O)N[C@@H](C)C(=O)N[C@@H]([C@@H](C)O)C(=O)N[C@@H](Cc1c[nH]cn1)C(=O)N[C@@H](Cc1ccccc1)C(=O)N2 [Cyclic [R27H]MCoFx7] (cyclo(ACICRATHFCGSGSDGGICPRIGRLCRRDSDCPG); disulfide 2-19, 4-26, 10-32)	0.12 ± 0.008	
CC[C@H](C)[C@H](NC(=O)CNC(=O)CNC(=O)[C@@H](N)CC(=O)O)C(=O)N[C@H]1CSSC[C@@H]2NC(=O)[C@H](C)NC(=O)CNC(=O)[C@@H]3CCCN3C(=O)[C@@H]3CSSC[C@@H](C(=O)NCC(=O)N[C@@H](CO)C(=O)NCC(=O)N[C@@H](CO)C(=O)O)NC(=O)[C@H](Cc4ccc(O)cc4)NC(=O)[C@H]([C@@H](C)O)NC(=O)[C@H](CCCNC(=N)N)NC(=O)[C@H](CCCNC(=N)N)NC(=O)[C@H]([C@@H](C)CC)NC(=O)[C@H](CSSC[C@H](NC(=O)[C@H](Cc4ccc(O)cc4)NC(=O)[C@H](C(C)C)NC(=O)[C@H](CC(C)C)NC(=O)[C@H]([C@@H](C)CC)NC(=O)[C@H](CCCNC(=N)N)NC(=O)[C@@H]4CCCN4C1=O)C(=O)N[C@@H](CCCNC(=N)N)C(=O)N[C@@H](CCCNC(=N)N)C(=O)N[C@@H](CC(=O)O)C(=O)N[C@@H](CO)C(=O)N[C@@H](CC(=O)O)C(=O)N3)NC(=O)[C@H]([C@@H](C)CC)NC2=O [MCoFx2 acyclic] (H-DGGICPRILVYCRRDSDCPGACICIRRTYCGSGS-OH; disulfide 5-22, 12-24, 18-30)		Kd [2]: 45.4 ± 2.9 nM; Kd [3]: < 0.1 nM; Ki [4]: 73 ± 3 nM
